From patent publication US9468680B2, “Differential effects of drugs on transport in a multi-layer 3D spheroid model” (Brown University, priority 2011, dated 2016)
Counter-ions that a name gives are not always drawn.

Assays:
KGN spheroids = assay: loss of calcein from calcein-loaded KGN spheroids; assay type: cell-based, human; conditions: after 135 minutes calcein-AM loading
Description: To measure uptake of calcein-AM and transport of calcein, medium was removed from the hydrogels containing self-assembled KGN spheroids (24 hours), and replaced with serum-free DMEM containing 1 μM calcein-AM (Invitrogen). Fluorescent imaging of calcein began immediately and images were taken at regular intervals over 135 minutes at 37° C. and 10% CO2. To measure loss or loss of calcein, hydrogels containing KGN spheroids that had been incubated with calcein-AM for 135 minutes, thus loading the spheroids with calcein, were rinsed with DMEM and incubated in DMEM without calcein-AM. Images were taken once per hour for 11 hours, at 37° C. and 10% CO2.

gap junctions = target: T1, gap junctions (Homo sapiens, UniProt P17302); assay: transport of calcein from outer shell to core of KGN spheroids (compartmentalization analysis); assay type: cell-based
T1 construct: endogenous in cells; host or cells: KGN human granulosa cell line, self-assembled 3D spheroids
Description: (§1) KGN cells, a human granulosa cell line, were grown in DMEM^29. OVCAR-3 and SK-OV-3 cells were grown in Roswell Park Memorial Institute medium (RPMI; Invitrogen). Both media were supplemented with 10% fetal bovine serum (FBS) (Thermo Fisher Scientific, Waltham, Mass.) and 1% penicillin/streptomycin and grown at 37° C. and 10% CO2. Cells were trypsinized using 0.05% trypsin and resuspended to the desired cell concentration. Spheroids that were pre-stained were formed from cells incubated with 5 μM CellTracker™ Red CMPTX, CellTracker™ Green CMFDA, or CellTracker™ Blue CMAC (Invitrogen) in serum-free DMEM for 1 hour prior to trypsinization. 75 μl of the cell suspension was pipetted into the seeding chamber of each gel. Cells were allowed to settle for 20 minutes and 4 mL of medium was added. Cells self-assembled for 24 hours to form spheroids before experimentation.
(§2) Quantitative image analysis was performed using a custom MATLAB (Mathworks, Natick, Mass.) program. Briefly, fifty evenly spaced radii were drawn across each spheroid and fluorescence at each pixel was averaged. […] Total spheroid fluorescence was determined by the integration of the fluorescent profiles (Equation 2). To compare data across experiments, we normalized the spheroids to the fluorescence per depth of single cells at the final time point.
(§3) To measure uptake of calcein-AM and transport of calcein, medium was removed from the hydrogels containing self-assembled KGN spheroids (24 hours), and replaced with serum-free DMEM containing 1 μM calcein-AM (Invitrogen). […] Images were taken once per hour for 11 hours, at 37° C. and 10% CO2.
(§4) Hydrogels were equilibrated with a drug-containing medium overnight at 37° C. and 10% CO2, and spheroids were self-assembled for 24 hours in their respective drug concentration. […] A working solution of carbenoxolone (Sigma) was prepared by diluting appropriate volumes of a 10 mM stock solution into serum-free medium. Spheroids were assembled for 24 hours and then pretreated with carbenoxolone for 5 hours prior to adding calcein-AM for the uptake assay. Medium containing drug and calcein-AM were used for the uptake assay.
To deconvolve this fluorescent signal into an average 3D radial profile, the spheroid was estimated as a series of concentric spheres (multi-layers). Each layer (shell) was 14 μm in width and contained a homogenous concentration of fluorescent calcein (FIGS. 3C and D). The total fluorescence f(i) at X, layer is sum of the fluorescence contribution from all shells at Xi. Mathematically, the total fluorescence can be written as
[formula] Here, fnorm(j) is the fluorescence/height in the i^th shell and h(i, j) is the height at point (Xi, Yj). Note h(i, i)=0 lies at the centerline of the spheroid. […] Equation (4) results in the following iterative formula: […]
The inner core was taken as about≧14 μm from the center in the smallest dimension to ensure the core contained whole cells.

Pgp [1] = target: T2, Pgp (Homo sapiens, UniProt P08183); assay: cell-based
Description: as §1, §2, §3, §4

Pgp [2] = target: T2, Pgp; conditions: 2D, calcein-AM assay, concentrations ranging from 1-100 μM; cited from earlier work
[3] = 1 μM calcein-AM, 75 minutes, n=15
[4] = 5 μM drug, 1 μM calcein-AM, 110 minutes
[5] = 5 μM drug, normalized data, 110 minutes

T1 sequence (P17302 2-382 limits assumed): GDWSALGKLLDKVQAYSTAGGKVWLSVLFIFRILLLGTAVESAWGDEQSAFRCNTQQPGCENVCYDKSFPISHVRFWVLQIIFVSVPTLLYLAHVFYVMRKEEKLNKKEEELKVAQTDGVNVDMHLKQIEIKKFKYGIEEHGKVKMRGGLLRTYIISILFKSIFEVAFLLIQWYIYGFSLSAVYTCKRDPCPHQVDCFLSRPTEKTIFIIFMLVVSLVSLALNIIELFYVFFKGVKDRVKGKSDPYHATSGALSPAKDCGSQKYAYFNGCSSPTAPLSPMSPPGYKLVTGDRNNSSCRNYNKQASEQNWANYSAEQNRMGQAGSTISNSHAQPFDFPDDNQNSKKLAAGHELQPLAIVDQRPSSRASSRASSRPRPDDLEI
T2 sequence (P08183 whole entry): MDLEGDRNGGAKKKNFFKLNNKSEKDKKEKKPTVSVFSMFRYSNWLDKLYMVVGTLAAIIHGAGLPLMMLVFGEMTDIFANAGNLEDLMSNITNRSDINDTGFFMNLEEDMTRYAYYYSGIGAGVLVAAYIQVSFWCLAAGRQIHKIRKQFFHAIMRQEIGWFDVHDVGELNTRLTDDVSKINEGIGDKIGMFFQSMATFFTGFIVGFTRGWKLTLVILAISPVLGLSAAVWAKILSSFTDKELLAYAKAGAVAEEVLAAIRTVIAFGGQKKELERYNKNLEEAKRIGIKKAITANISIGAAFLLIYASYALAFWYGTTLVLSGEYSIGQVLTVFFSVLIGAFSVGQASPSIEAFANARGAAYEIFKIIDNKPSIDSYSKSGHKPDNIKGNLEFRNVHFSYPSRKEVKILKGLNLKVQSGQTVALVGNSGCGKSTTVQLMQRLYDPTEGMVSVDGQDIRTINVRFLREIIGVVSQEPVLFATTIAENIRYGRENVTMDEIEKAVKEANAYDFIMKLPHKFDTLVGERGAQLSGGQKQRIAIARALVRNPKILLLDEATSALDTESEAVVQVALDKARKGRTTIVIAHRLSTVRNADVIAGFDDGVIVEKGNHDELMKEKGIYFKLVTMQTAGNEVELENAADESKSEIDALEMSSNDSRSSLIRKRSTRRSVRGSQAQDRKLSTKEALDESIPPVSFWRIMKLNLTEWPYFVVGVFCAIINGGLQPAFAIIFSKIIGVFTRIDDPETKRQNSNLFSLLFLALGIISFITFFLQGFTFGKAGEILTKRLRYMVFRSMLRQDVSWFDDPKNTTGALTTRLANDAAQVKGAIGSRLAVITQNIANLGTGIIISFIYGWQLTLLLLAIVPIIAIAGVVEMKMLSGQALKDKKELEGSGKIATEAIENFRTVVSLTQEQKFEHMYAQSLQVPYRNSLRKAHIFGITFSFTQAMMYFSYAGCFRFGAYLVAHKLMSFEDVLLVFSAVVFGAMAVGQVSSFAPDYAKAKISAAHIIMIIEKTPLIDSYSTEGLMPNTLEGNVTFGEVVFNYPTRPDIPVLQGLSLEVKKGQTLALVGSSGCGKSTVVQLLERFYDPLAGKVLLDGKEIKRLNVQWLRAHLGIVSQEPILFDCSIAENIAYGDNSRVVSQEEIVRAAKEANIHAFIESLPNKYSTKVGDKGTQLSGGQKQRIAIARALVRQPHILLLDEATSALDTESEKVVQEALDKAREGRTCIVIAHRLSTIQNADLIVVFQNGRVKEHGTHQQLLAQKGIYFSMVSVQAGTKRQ

SMILES	effect on loss of total spheroid calcein (KGN spheroids)	initial rate of calcein loss from the outer shell (KGN spheroids; drug-free medium, control 17±3% per hour, p<0.05)	percentage of calcein in the core compared to controls (gap junctions; [3])	percentage of calcein in the outer shell compared to controls (gap junctions; [3])	IC50 (gap junctions; 1 μM calcein-AM, 75 minutes, read-out: half-maximal response, inhibition of gap junctions (fraction of calcein compartmentalized to outer shell))	calcein in the core, fold less than controls (gap junctions; CBX 100 μM, 1 μM calcein-AM, 135 minutes)	percentage of calcein in the core (gap junctions; CBX 100 μM, 135 minutes, n=18, untreated 15±3%)	percentage of calcein in the outer shell (gap junctions; CBX 100 μM, 135 minutes, n=18, untreated 27±3%)	IC50 (Pgp [1])	calcein in the outer shell, fold higher than controls (Pgp [1]; human, 135 min, 100 μM)	calcein concentration in the core of the spheroid compared to untreated (gap junctions; [4])	percentage of calcein in the core compared to control (gap junctions; [5])	percentage of calcein in the outer most shell compared to control (gap junctions; [5])	calcein in the outer shell compared to untreated controls (Pgp [1]; [4])	total concentration of calcein in the spheroids compared to untreated controls (Pgp [1]; [4])	percent maximum inhibition (Pgp [2])
CC1(C)[C@@H](OC(=O)CCC(=O)O)CC[C@]2(C)[C@H]3C(=O)C=C4[C@@H]5C[C@@](C)(C(=O)O)CC[C@]5(C)CC[C@@]4(C)[C@]3(C)CC[C@@H]12 [carbenoxolone]	no effect	13±1 % per hour	reduced	increased	9.4 µM	8 fold	0.5±2%	52±4%	81 µM	3 fold	–	–	–	–	–	–
CN(C)C(=O)C(CCN1CCC(O)(c2ccc(Cl)cc2)CC1)(c1ccccc1)c1ccccc1 [loperamide, loperamide hydrochloride]	–	–	–	–	–	–	–	–	–	–	did not increase	decreased	increased	significantly increased	significantly increased	76.3%
